In US12157730B2, “Heteroaryl derivative, method for producing same, and pharmaceutical composition comprising same as effective component” (VORONOI INC., priority 2019, dated 2024):

Each compound was assayed against T1, Ba/F3 cell EGFR Exon20 ins NPH (Homo sapiens, UniProt P00533, INS773NPH) (assay: Ba/F3 cell proliferation suppression, EGFR Exon20 ins NPH). Conditions: GI50 class; Ba/F3 cell line with NPH inserted at Exon20 of EGFR; 72 hours.
T1 construct: expressed in transfected cells; host or cells: Ba/F3
Assay type: cell-based
Experimental: The following experiment was carried out to evaluate the suppression activity of the compounds according to the present invention against proliferation of Ba/F3 and lung cancer cells which express EGFR mutations.
Of the cancer cell lines expressing the EGFR gene, A549 was cultured after adding 10% FBS (HyClone) to DMEM (Invitrogen), and RPMI-1640 (Invitrogen) with 10% FBS was used for the other cancer cells. For the Ba/F3 cells, RPMI-1640 with 10% FBS and 5 ng/ml IL-3 (R&D Systems) was used. The transduced Ba/F3 cells were cultured by adding 1 ug/ml puromycin (Invitrogen) to the same medium.
24 hours before treatment with the compounds, 3000 to 5000 cells were distributed into each well of a white clear bottom 96 well plate (Corning). The compounds were diluted in dimethylsulfoxide (dilution ratio 3:1; 12 concentrations total) and injected 0.5 ul each for a final concentration of 0.3 nM to 50 um. As for measurement of live cells, 72 hours after treatment with the compounds, a CellTiter-Glo luminescent cell-viability reagent (Promega) was used to store the cells at room temperature for 10 minutes, followed by measurement of luminescence using a reader (SynergyNeo, Biotek). Each test was repeated three times.
The result was calculated as a cell growth ratio (%) compared to a control. The program GraphPad Prism version 5.0 was used to draw the graphs and calculate the GI50 values.

| Structure (SMILES) | Ba/F3 (NPH) Activity |
| --- | --- |
| C=CC(=O)Nc1cc(Nc2cc(N3OCC[C@@H]3c3cc(F)cc(F)c3)ncn2)c(OC)cc1N1CCC(N2C[C@@H]3C[C@H]2CN3CC)CC1 [Example 264, N-(5-((6-((R)-3-(3,5-difluorophenyl)isoxazolidine-2-yl)pyrimidine-4-yl)amino)-2-(4-((1S,4S)-5-ethyl-2,5-diazabicyclo[2.2.1]heptane-2-yl)piperidine-1-yl)-4-methoxyphenyl) acrylamide] | A (GI50 < 50 nM) |
| C=CC(=O)Nc1cc(Nc2cc(N3OCC[C@@H]3c3cccc(Cl)c3F)ncn2)c(OC)cc1N1CCC(N(C)C)CC1 [compound 790, N-(5-((6-((R)-3-(3-chloro-2-fluorophenyl)isoxazolidine-2-yl)pyrimidine-4-yl)amino)-2-(4-(dimethylamino)piperidine-1-yl)-4-methoxyphenyl) acrylamide] | A (GI50 < 50 nM) |
| C=CC(=O)Nc1cc(Nc2cc(N3OCC[C@@H]3c3ccc(Cl)cc3)ncn2)c(OC)cc1N1CCC(N2CCN(C)CC2)CC1 [compound 732, N-(5-((6-((R)-3-(4-chlorophenyl)isoxazolidine-2-yl)pyrimidine-4-yl)amino)-4-methoxy-2-(4-(4-methylpiperazine-1-yl)piperidine-1-yl)phenyl) acrylamide] | A (GI50 < 50 nM) |
| C=CC(=O)Nc1cc(Nc2cc(N3OCC[C@@H]3Cc3cccc(F)c3Cl)ncn2)c(OC)cc1N1CCC(N2CCN(C3CC3)[C@@H](C)C2)CC1 [compound 1037, N-(5-((6-((S)-3-(2-chloro-3-fluorobenzyl)isoxazolidine-2-yl)pyrimidine-4-yl)amino)-2-(4-((S)-4-cyclopropyl-3-methylpiperazine-1-yl)piperidine-1-yl)-4-methoxyphenyl) acrylamide] | A (GI50 < 50 nM) |
| C=CC(=O)Nc1cc(Nc2cc(N3OCC[C@@H]3c3ccc(F)cc3F)ncn2)c(OC)cc1N1CCC(N2CCN(C(C)=O)CC2)CC1 [compound 427, N-(2-(4-(4-acetylpiperazine-1-yl)piperidine-1-yl)-5-((6-((R)-3-(2,4-difluorophenyl)isoxazolidine-2-yl)pyrimidine-4-yl)amino)-4-methoxyphenyl) acrylamide] | A (GI50 < 50 nM) |
| C=CC(=O)Nc1cc(Nc2cc(N3OCC[C@@H]3c3cccc(Cl)c3F)ncn2)c(OC)cc1N1CCC(N2CCC3(CC2)CC3)CC1 [compound 355, N-(2-(4-(6-azaspiro[2.5]octan-6-yl)piperidine-1-yl)-5-((6-((R)-3-(3-chloro-2-fluorophenyl)isoxazolidine-2-yl)pyrimidine-4-yl)amino)-4-methoxyphenyl) acrylamide] | A (GI50 < 50 nM) |
| C=CC(=O)Nc1cc(Nc2cc(N3OCC[C@@H]3c3ccc4ccccc4c3)ncn2)c(OC)cc1N1CCN(CC)CC1 [compound 514, N-(2-(4-ethylpiperazine-1-yl)-4-methoxy-5-((6-((R)-3-(naphthalene-2-yl)isoxazolidine-2-yl)pyrimidine-4-yl)amino)phenyl)acrylamide] | B (50 nM ≤ GI50 < 500 nM) |
| C=CC(=O)Nc1cc(Nc2cc(N3OCC[C@@H]3c3ccc(F)c(Cl)c3)ncn2)c(OC)cc1N1CCC(N2CC[C@H](N(C)C)C2)CC1 [compound 764, N-(5-((6-((R)-3-(3-chloro-4-fluorophenyl)isoxazolidine-2-yl)pyrimidine-4-yl)amino)-2-(4-((S)-3-(dimethylamino)pyrolidine-1-yl)piperidine-1-yl)-4-methoxyphenyl) acrylamide] | A (GI50 < 50 nM) |
| C=CC(=O)Nc1cc(Nc2cc(N3OCC[C@@H]3c3cccc(C#N)c3)ncn2)c(OC)cc1N1CCN(C2COC2)CC1 [compound 391, N-(5-((6-((R)-3-(3-cyanophenyl)isoxazolidine-2-yl)pyrimidine-4-yl)amino)-4-methoxy-2-(4-(oxetane-3-yl)piperazine-1-yl)phenyl) acrylamide] | B (50 nM ≤ GI50 < 500 nM) |
| C=CC(=O)Nc1cc(Nc2cc(N3OCC[C@@H]3c3cccc(OC)c3)ncn2)c(OC)cc1N1CCC(N(C)C)CC1 [compound 731] | B (50 nM ≤ GI50 < 500 nM) |
| C=CC(=O)Nc1cc(Nc2cc(N3OCC[C@@H]3c3ccc(C)nc3)ncn2)c(OC)cc1N1CCC(N2CCN(C3CC3)CC2)CC1 [Example 67, N-(2-(4-(4-cyclopropylpiperazine-1-yl)piperidine-1-yl)-4-methoxy-5-((6-((R)-3-(6-methylpyridine-3-yl)isoxazolidine-2-yl)pyrimidine-4-yl)amino)phenyl) acrylamide] | B (50 nM ≤ GI50 < 500 nM) |
| C=CC(=O)Nc1cc(Nc2cc(N3OCC[C@@H]3Cc3ccccc3)ncn2)c(OC)cc1N1CCN(C2CC2)CC1 [compound 952, N-(5-((6-((S)-3-benzylisoxazolidine-2-yl)pyrimidine-4-yl)amino)-2-(4-cyclopropylpiperazine-1-yl)-4-methoxyphenyl) acrylamide] | A (GI50 < 50 nM) |
| C=CC(=O)Nc1cc(Nc2cc(N3OCC[C@@H]3c3cccc(C)c3F)ncn2)c(OC)cc1N1CCC(N2C[C@H](C)N(C3CC3)C[C@@H]2C)CC1 [Example 123, N-(2-(4-((2S,5S)-4-cyclopropyl-2,5-dimethylpiperazine-1-yl)piperidine-1-yl)-5-((6-((R)-3-(2-fluoro-3-methylphenyl)isoxazolidine-2-yl)pyrimidine-4-yl)amino)-4-methoxyphenyl) acrylamide] | A (GI50 < 50 nM) |
| C=CC(=O)Nc1cc(Nc2cc(N3OCC[C@@H]3c3c(F)ccc(F)c3F)ncn2)c(OC)cc1N(C)CCN(C)C [compound 628, N-(2-((2-(dimethylamino)ethyl) (methyl)amino)-4-methoxy-5-((6-((R)-3-(2,3,6-trifluorophenyl)isoxazolidine-2-yl)pyrimidine-4-yl)amino)phenyl)acrylamide] | A (GI50 < 50 nM) |
| C=CC(=O)Nc1cc(Nc2cc(N3OCC[C@@H]3c3ccc(F)c(F)c3F)ncn2)c(OC)cc1N1CC[C@H](N2CCOCC2)C1 [compound 624, N-(4-methoxy-2-((S)-3-morpholinopyrolidine-1-yl)-5-((6-((R)-3-(2,3,4-trifluorophenyl)isoxazolidine-2-yl)pyrimidine-4-yl)amino)phenyl)acrylamide] | C (500 nM ≤ GI50 < 5000 nM) |

More lines, now with the values ahead:

| Ba/F3 (NPH) Activity | Structure (SMILES) |
| --- | --- |
| A (GI50 < 50 nM) | C=CC(=O)Nc1cc(Nc2cc(N3OCC[C@@H]3c3cc(F)ccc3F)ncn2)c(OC)cc1N1CCC(N2CCC3(CC2)CC3)CC1 [compound 828, N-(2-(4-(6-azaspiro[2.5]octan-6-yl)piperidine-1-yl)-5-((6-((R)-3-(2,5-difluorophenyl)isoxazolidine-2-yl)pyrimidine-4-yl)amino)-4-methoxyphenyl) acrylamide] |
| A (GI50 < 50 nM) | C=CC(=O)Nc1cc(Nc2cc(N3OCC[C@@H]3c3cccc(F)c3)ncn2)c(OC)cc1N1CCOCC1 [compound 840, N-(5-((6-((R)-3-(3-fluorophenyl)isoxazolidine-2-yl)pyrimidine-4-yl)amino)-4-methoxy-2-morpholinophenyl) acrylamide] |
| A (GI50 < 50 nM) | C=CC(=O)Nc1cc(Nc2cc(N3OCC[C@@H]3c3cccc(Cl)c3F)ncn2)c(OC)cc1N(C)CCN(C)C [compound 746, N-(5-((6-((R)-3-(3-chloro-2-fluorophenyl)isoxazolidine-2-yl)pyrimidine-4-yl)amino)-2-((2-(dimethylamino)ethyl)(methyl)amino)-4-methoxyphenyl) acrylamide] |
| A (GI50 < 50 nM) | C=CC(=O)Nc1cc(Nc2cc(N3OCC[C@@H]3c3cccc(Cl)c3)ncn2)c(OC)cc1N1CCC(N2C[C@@H]3C[C@H]2CO3)CC1 [compound 462, N-(2-(4-((1S,4S)-2-oxa-5-azabicyclo [2.2.1]heptane-5-yl)piperidine-1-yl)-5-((6-((R)-3-(3-chlorophenyl)isoxazolidine-2-yl)pyrimidine-4-yl)amino)-4-methoxyphenyl) acrylamide] |
| A (GI50 < 50 nM) | C=CC(=O)Nc1cc(Nc2cc(N3OCC[C@@H]3c3c(F)ccc(F)c3F)ncn2)c(OC)cc1N1CCC(N2CCN(C3CC3)[C@H](C)C2)CC1 [Example 166, N-(2-(4-((R)-4-cyclopropyl-3-methylpiperazine-1-yl)piperidine-1-yl)-4-methoxy-5-((6-((R)-3-(2,3,6-trifluorophenyl)isoxazolidine-2-yl)pyrimidine-4-yl)amino)phenyl)acrylamide] |
| A (GI50 < 50 nM) | C=CC(=O)Nc1cc(Nc2cc(N3OCC[C@@H]3c3cccc(Cl)c3)ncn2)c(OC)cc1N1CCC(N(C)C)CC1 [compound 361, N-(5-((6-((R)-3-(3-chlorophenyl)isoxazolidine-2-yl)pyrimidine-4-yl)amino)-2-(4-(dimethylamino)piperidine-1-yl)-4-methoxyphenyl) acrylamide] |
| A (GI50 < 50 nM) | C=CC(=O)Nc1cc(Nc2cc(N3OCC[C@@H]3c3ccc(Cl)c(F)c3)ncn2)c(OC)cc1N1CCC(N2CC[C@@H](N(C)C)C2)CC1 [compound 800, N-(5-((6-((R)-3-(4-chloro-3-fluorophenyl)isoxazolidine-2-yl)pyrimidine-4-yl)amino)-2-(4-((R)-3-(dimethylamino)pyrolidine-1-yl)piperidine-1-yl)-4-methoxyphenyl) acrylamide] |
